Assay results: patent US20250042894A1, “PROTEIN TYROSINE PHOSPHATASE INHIBITORS AND METHODS OF USE THEREOF” (Calico Life Sciences LLC, priority 2021, published 2025)
pEC50, pIC50: −log10 of the molar value. Read-outs that look alike come from different tables or passages of the source.

Legend:
[1] = test system: IFNγ-induced STAT1 phosphorylation (pSTAT1) in B16F10 cells; experiment: B16F10 Phospho-STAT1 HTRF proximal pharmacodynamic (PD) assay; type: cell-based, murine; conditions: for pEC50: B16-F10
Description: Example 45: B16F10 (Murine Melanoma Cells) Phospho-STAT1 HTRF Proximal Pharmacodynamic (PD) Assay
B16F10 cells were grown and maintained in high glucose DMEM (Gibco, Catalog #11965-092, Dun Laoghaire Co Dublin) supplemented with 10% fetal bovine serum (Gibco, Catalog #10082-139, Dun Laoghaire Co Dublin). The cells were pelleted and resuspended in high glucose DMEM without phenol red (Gibco, Catalog #11054-020, Dun Laoghaire Co Dublin), supplemented with 10% fetal bovine serum and plated in a 384 well Corning plate (product #3765, Corning, NY) at 11,000 cells per well in a volume of 20 μL. The cells were dosed with the compounds of interest using an Echo Liquid Handler (Beckman Coulter, Brea, CA) at 50 μM top dose with 3-fold dilutions down to 0.002679 μM for a 10-point dose response. The plate was incubated for 3 hours at 37° C. and subsequently treated with recombinant mouse IFNγ (R&D Systems, Catalog #485-MI, Minneapolis, MN; 100 nM final concentration) for 10 minutes at 37° C. to induce STAT1 phosphorylation followed by 3.3 μM staurosporine treatment for 1 hour at 37° C. to terminate phosphorylation. Media was then aspirated and 20 μL of 1× lysis buffer/blocking reagent (Cisbio Phospho-STAT1 kit, part #63ADK026PEH, Bedford, MA) was added. The plate was placed on a plate shaker for 30 minutes at room temperature, sealed, and stored at −80° C. until needed. To thaw, the plate was placed on shaker at room temperature until completely thawed while the antibody master mix was made (1:40 Phospho-STAT1 Eu Cryptate antibody, 1:40 Phospho-STAT1 d2 antibody, with the detection buffer; Cisbio Phospho-STAT1 kit, part #63ADK026PEH, Bedford, MA). The antibody master mix was then dispensed at 4 μL per well into a 384 ProxiPlate Plus (PerkinElmer, part #6008289, Waltham, MA) and 16 μL of lysate was added from the Corning plate to the Proxiplate using a VIAFLO 384 (INTEGRA). The plate was incubated for 3 hours at room temperature and read on an EnVision® (Perkin Elmer) plate reader with laser excitation at 335 nm and emission at 665 nm. Dotmatics Studies (Bishop's Stortford, UK) was utilized to generate all dose-response curves and calculate EC50s and are shown in Table 2.

[2] = biological target: T1, His tagged PTPN2 (TC45) protein (Homo sapiens, UniProt P17706); experiment: Mobility Shift Assay (MSA) for PTPN2 inhibitors; type: biochemical; conditions: for Thiochromane x-fold>potency biochemical: PTPN2 MSA IC50 of chromane comparator over thiochromane
T1 construct: His; made in house
T1 sequence (P17706 1-387 isoform P17706-2): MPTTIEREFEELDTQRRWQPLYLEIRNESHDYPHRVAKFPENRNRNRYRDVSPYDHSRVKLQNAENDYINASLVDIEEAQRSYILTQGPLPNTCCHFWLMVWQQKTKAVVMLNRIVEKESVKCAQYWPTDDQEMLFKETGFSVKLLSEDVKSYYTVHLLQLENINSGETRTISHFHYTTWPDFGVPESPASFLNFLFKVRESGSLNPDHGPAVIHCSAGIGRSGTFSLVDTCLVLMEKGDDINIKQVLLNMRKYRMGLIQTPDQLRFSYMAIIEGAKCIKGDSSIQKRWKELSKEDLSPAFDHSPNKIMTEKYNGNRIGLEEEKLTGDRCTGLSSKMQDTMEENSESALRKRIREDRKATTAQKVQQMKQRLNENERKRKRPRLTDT
Description: Example 43: Mobility Shift Assay (MSA) Used to Determine Potency of PTPN2 Inhibitors
Compound activity was determined using in house His tagged PTPN2 (TC45) protein (SEQ ID NO: 1) in an in vitro enzymatic reaction. The enzymatic assay used to determine activity was a mobility shift assay using a LabChip EZ Reader by Caliper Life Sciences. The enzymatic reaction was carried out in assay buffer (50 mM HEPES pH 7.5, 1 mM EGTA, 10 mM EDTA, 0.01% Tween® 20, and 2 mM DTT). The compounds were dispensed on a white 384 well ProxiPlate™ (PerkinElmer Catalog #6008289) plate using the Labcyte Echo at varying concentrations (12 point, 1:3 dilution). The enzyme (at 0.5 nM) was incubated with compound for 10 minutes at room temperature. Thereafter, the substrate (phosphorylated insulin receptor probe sequence: ((OG488)-(NH—CH2—CH2—O—CH2—CH2—O—CH2—CO)-T-R-D-I—(PY)-E-T-D-Y—Y—R—K—K—NH2) (SEQ ID NO: 2) was added at 2 μM to the plates and incubated for another 10 minutes at room temperature. Finally, a quench solution (water and 4-bromo-3-(2-oxo-2-propoxyethoxy)-5-(3-{[1-(phenylmethanesulfonyl)piperidin-4-yl]amino}phenyl)thiophene-2-carboxylic acid) was added to the plates, which were then run on the EZ Reader (excitation 488 nm, emission 530 nm) to measure % conversion (the amount of phosphorylated substrate which was de-phosphorylated by PTPN2). […] The % inhibition was then used to calculate the IC50 values.

[3] = biological target: T2, His tagged full-length PTPN1 protein (Homo sapiens, UniProt P18031); experiment: Mobility Shift Assay (MSA) for PTPN1 inhibitors; type: biochemical; conditions: enzyme 0.5 nM, substrate 2 μM, 10 minutes preincubation at room temperature
T2 construct: His; made in house
T2 sequence (P18031 1-435): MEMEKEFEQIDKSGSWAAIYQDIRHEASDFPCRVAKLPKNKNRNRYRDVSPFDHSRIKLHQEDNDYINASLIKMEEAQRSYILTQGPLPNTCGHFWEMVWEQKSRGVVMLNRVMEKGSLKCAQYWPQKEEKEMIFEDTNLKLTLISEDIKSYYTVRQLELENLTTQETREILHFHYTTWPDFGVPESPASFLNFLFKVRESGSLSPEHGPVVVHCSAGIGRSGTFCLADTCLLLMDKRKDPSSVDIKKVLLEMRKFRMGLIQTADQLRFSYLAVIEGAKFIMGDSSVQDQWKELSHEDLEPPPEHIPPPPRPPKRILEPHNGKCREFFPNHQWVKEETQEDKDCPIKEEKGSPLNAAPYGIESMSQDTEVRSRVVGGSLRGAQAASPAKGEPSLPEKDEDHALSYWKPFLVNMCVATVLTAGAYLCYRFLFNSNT
Description: Example 44: Mobility Shift Assay (MSA) Used to Determine Potency of PTPN1 Inhibitors
Compound activity was determined using in house His tagged full-length PTPN1 protein (SEQ ID NO: 3) in an in vitro enzymatic reaction. The enzymatic assay used to determine activity is a mobility shift assay using a LabChip EZ Reader by Caliper Life Sciences. The enzymatic reaction was carried out in assay buffer (50 mM HEPES pH 7.5, 1 mM EGTA, 10 mM EDTA, 0.010% Tween® 20, and 2 mM DTT). The compounds were dispensed on a white 384 well ProxiPlate™ (PerkinElmer Cat #6008289) plate using a Labcyte Echo® liquid handler at varying concentrations (12 point, 1:3 dilution). The enzyme (at 0.5 nM) was incubated with compound for 10 minutes at room temperature. Thereafter, the substrate (phosphorylated insulin receptor probe sequence: ((OG488)-(NH—CH2—CH2—O—CH2—CH2—O—CH2—CO)-T-R-D-I—(PY)-E-T-D-Y—Y—R—K—K—NH2) (SEQ ID NO: 2) was added at 2 μM to the plates and incubated for another 10 minutes at room temperature. Finally, a quench solution (water and 4-bromo-3-(2-oxo-2-propoxyethoxy)-5-(3-{[1-(phenylmethanesulfonyl)piperidin-4-yl]amino}phenyl)thiophene-2-carboxylic acid) was added to the plates, which were then run on the EZ Reader (excitation 488 nm, emission 530 nm) to measure % conversion (the amount of phosphorylated substrate which was de-phosphorylated by PTPN1). […] The % inhibition was then used to calculate the IC50 values.

[4] = Table 2, 3 hours compound, then mouse IFNγ 100 nM 10 minutes, top dose 50 μM, read-out: B16F10 IFNγ Induced pSTAT1 EC50
[5] = enzyme 0.5 nM, substrate 2 μM, 10 minutes preincubation at room temperature
[6] = Mus musculus, Table 3, B16F10 cells, IFNγ-induced, thiochromanes (X = S) and chromane comparators (X = O), read-out: pSTAT1 EC50
[7] = Table 3, thiochromanes (X = S) and chromane comparators (X = O)

| Structure (SMILES) | pIC50 [3] | pEC50 [1, 6] | also measured |
| --- | --- | --- | --- |
| O=C1CN(c2c(O)cc3c(c2F)C[C@H](NCC2(F)CC2)CS3)S(=O)(=O)N1 [Compound 125, 5-[(3S)-5-fluoro-3-{[(1-fluorocyclopropyl)methyl]amino}-7-hydroxy-3,4-dihydro-2H-1-benzothiopyran-6-yl]-1λ^6,2,5-thiadiazolidine-1,1,3-trione] | 7.00 to 8.00 | – | pEC50 [1, 4]: < 4.30; pIC50 [2, 5]: 7.00 to 8.00 |
| CC(C)N[C@@H]1CSc2cc(O)c(N3CC(=O)NS3(=O)=O)c(F)c2C1 [Compound 116, 5-{(3S)-5-fluoro-7-hydroxy-3-[(propan-2-yl)amino]-3,4-dihydro-2H-1-benzothiopyran-6-yl}-1λ^6,2,5-thiadiazolidine-1,1,3-trione] | < 7.00 | – | pEC50 [1, 4]: 4.76; pIC50 [2, 5]: 7.00 to 8.00 |
| O=C1CN(c2c(O)cc3c(c2F)C[C@H](NCCCOCC(F)F)CS3)S(=O)(=O)N1 [Compound 137, 5-[(3S)-3-{[3-(2,2-difluoroethoxy)propyl]amino}-5-fluoro-7-hydroxy-3,4-dihydro-2H-1-benzothiopyran-6-yl]-1λ^6,2,5-thiadiazolidine-1,1,3-trione] | 7.00 to 8.00 | < 4.30 | pEC50 [1, 4]: < 4.30; Thiochromane x-fold>potency cellular ([1]; Table 3, pSTAT1 EC50 of chromane comparator over thiochromane): ~1.0; Thiochromane x-fold>potency biochemical ([2]; Table 3): 1.1; pIC50 [2, 7]: 7.68; pIC50 [2, 5]: 7.00 to 8.00 |
| CC(C)CCN[C@@H]1COc2cc(O)c(N3CC(=O)NS3(=O)=O)c(F)c2C1 [Compound C-3, reference compound] | – | 5.16 | pIC50 [2, 7]: 7.82 |
| O=C1CN(c2c(O)cc3c(c2F)CC(NCCC2CCOC2)CO3)S(=O)(=O)N1 (stereo not shown) [Compound C-5, reference compound] | – | 4.65 | – |
| O=C1CN(c2c(O)cc3c(c2F)CC(NCC2CCC(C(F)(F)F)CC2)CO3)S(=O)(=O)N1 (stereo not shown) [Compound C-11, reference compound] | – | < 4.30 | – |
| CC1=C(CCNC2COc3cc(O)c(N4CC(=O)NS4(=O)=O)c(F)c3C2)C(C)(C)CCC1 (stereo not shown) [Compound C-12, reference compound] | – | < 4.30 | – |
| O=C1CN(c2c(O)cc3c(c2F)CC(NCCC2CCOCC2)CO3)S(=O)(=O)N1 (stereo not shown) [Compound C-4, reference compound] | – | 4.49 | – |
| O=C1CN(c2c(O)cc3c(c2F)CC(NCC2C4CCCC42)CO3)S(=O)(=O)N1 (stereo not shown) [Compound C-10, reference compound] | – | < 4.30 | – |
| O=C1CN(c2c(O)cc3c(c2F)CC(NCC2CC(c4ccccc4)C2)CO3)S(=O)(=O)N1 (stereo not shown) [Compound C-7, reference compound] | – | < 4.30 | – |
| N[C@@H]1COc2cc(O)c(N3CC(=O)NS3(=O)=O)c(F)c2C1 [Compound C-2, reference compound] | – | 5.24 | pIC50 [2, 7]: 7.28 |
| O=C1CN(c2c(O)cc3c(c2F)CC(NCC2(CF)CC2)CO3)S(=O)(=O)N1 (stereo not shown) [Compound C-6, reference compound] | – | < 4.30 | – |
| O=C1CN(c2c(O)cc3c(c2F)CC(NCCCc2ccccc2)CO3)S(=O)(=O)N1 (stereo not shown) [Compound C-8, reference compound] | – | < 4.30 | – |
| N[C@@H]1CSc2cc(O)c(N3CC(=O)NS3(=O)=O)c(F)c2C1 [Compound 102, 5-[(3S)-3-amino-5-fluoro-7-hydroxy-3,4-dihydro-2H-1-benzothiopyran-6-yl]-1λ^6,2,5-thiadiazolidine-1,1,3-trione] | < 7.00 | – | Thiochromane x-fold>potency biochemical ([2]; Table 3): 1.7; pIC50 [2, 7]: 7.51; pIC50 [2, 5]: 7.00 to 8.00 |
| CC(C)(C)OC(=O)N1CCC(CNC2COc3cc(O)c(N4CC(=O)NS4(=O)=O)c(F)c3C2)CC1 (stereo not shown) [Compound C-13, reference compound] | – | < 4.30 | – |
| CC(C)(C)OC(=O)N[C@@H]1CSc2cc(O)c(N3CC(=O)NS3(=O)=O)c(F)c2C1 [Compound 101, tert-butyl [(3S)-5-fluoro-7-hydroxy-6-(1,1,4-trioxo-1λ^6,2,5-thiadiazolidin-2-yl)-3,4-dihydro-2H-1-benzothiopyran-3-yl]carbamate] | < 7.00 | – | – |
